According to article PMC8987933 (Frontiers in Nutrition, 2022):
Read-outs that look alike come from different tables or passages of the source.

What was measured:
[1] = system: human BCRP; conditions: cited from earlier work
[2] = system: human P-gp; conditions: cited from earlier work
[3] = system: OATP1A2; conditions: cited from earlier work
[4] = system: OATP2B1; conditions: cited from earlier work
[5] = system: OATP1B1; conditions: cited from earlier work
[6] = clinical; conditions: human, in vivo
Source text: Healthy Chinese male subjects aged 18–45 years were recruited from a pool of over 200 healthy volunteers who had been genotyped for the ABCG2 421C>A (rs2231142) polymorphism. A total of 20 healthy Chinese male subjects were selected for the rosuvastatin pharmacokinetic study based on the ABCG2 421C>A genotypes. The study was reviewed and approved by the Joint Chinese University of Hong Kong-New Territories East Cluster Clinical Research Ethics Committee with reference number CRE-2010.524-T. The study was performed in accordance with the ethical standards laid down in the Declaration of Helsinki and subsequent revisions. Written informed consent was obtained from each participant.
All subjects were required to abstain from any prescription or non-prescription medications 2 weeks before and throughout the study. They were not allowed to take alcohol, tea, grapefruit juice, caffeine, soybean milk or dietary supplements and herbal products 2 weeks before and throughout the entire study period. They were also not allowed to smoke 2 weeks before and throughout the study. Subjects were requested to fast for 10 h before and 4 h after drug administration during the blood sampling sessions. Meals were standardized and consumed at 4 h and 10 h post-dosing. Drinking water was not allowed from 1 h pre-dose to 1 h post-dose except that needed for drug dosing at the time of blood sampling sessions. Subjects were asked to report any adverse effects at each visit to the study center.
This was an open-label, three-phase randomized crossover study. […] The herbal extracts were present as a powder which was taken in 150 ml water at room temperature. Blood samples were taken at intervals from 0 to 24 h on the rosuvastatin dosing days. During the study, subjects were frequently reminded of the requirements for diet restrictions, and they were requested to record their daily food intake, including the main meals, snacks and beverages of the day by using a simple food diary, which can help to monitor the food compliance during the study.
Plasma concentrations of rosuvastatin were determined by Liquid Chromatography-Tandem Mass Spectrometry (LC-MS/MS) using the corresponding isotopically labeled compound as an internal standard as described ([28]). The plasma samples were prepared using liquid–liquid extraction with diethyl ether. Chromatographic separation was accomplished on an Xterra MS C18 column (50 × 2.1 mm, 5 μm; Waters, Milford, MA). The mobile phase consisted of a gradient mixture of 0.015 mmol/L ammonium acetate in water (mobile phase A) and methanol (mobile phase B) at a flow rate of 0.4 mL/min. The gradient started at 20% mobile phase B for 0.5 min with a subsequent fast gradient to 100% mobile phase B in 1 min and maintained for another 2.5 min. The gradient was then returned to the initial mobile phase concentration in a chromatographic run of 8 min. MS/MS detection with quantification transition of m/z 480.1–418.1 and qualification transition of m/z 480.1–340.1 was used for rosuvastatin. The lower limit of quantification of rosuvastatin was 0.05 μg/L by using 200 μL plasma.
The pharmacokinetic parameters of rosuvastatin were calculated using non-compartmental methods with the aid of the computer program WinNolin (version 2.1, Pharsight Corporation). The maximum plasma concentration (Cmax) and time to Cmax (tmax) were obtained directly from the observed concentration-time data. The terminal elimination rate constant (λZ) was estimated by linear regression of the terminal portion of the concentration-time curve, and the elimination half-life (t1/2) was calculated as 0.693/λZ. Systemic exposure to rosuvastatin was evaluated by calculating the AUC using the linear trapezoidal rule and AUC0−∞ was calculated as AUC0−∞ = AUC0−t + Ct/Kel where Ct is the last quantifiable concentration. The oral clearance (CL/F) was calculated as Dose/AUC0−∞.

[7] = cited from earlier work
[8] = cited from earlier work; remark: listed apart in the source
[9] = with green tea; 10 healthy volunteers; cited from earlier work
[10] = cited from earlier work; remark: listed apart in the source
[11] = cited from earlier work; remark: listed apart in the source
[12] = system: OATP1B3; conditions: in vitro studies; cited from earlier work
[13] = rosuvastatin administered with 300 mg pure crystalline EGCG (single dose)
[14] = pre-treatment with green tea extract (400 mg/kg) vs control

## Oc1cc(O)c2c(c1)O[C@H](c1ccc(O)c(O)c1)[C@H](O)C2 [EC, epicatechin]
[1]
  effect on BCRP-mediated dasatinib efflux: no significant effect
[2]
  effect on P-gp-mediated dasatinib efflux: no significant effect

## O=C(O[C@@H]1Cc2c(O)cc(O)cc2O[C@@H]1c1ccc(O)c(O)c1)c1cc(O)c(O)c(O)c1 [ECG, epicatechin gallate]
[1]
  effect on BCRP-mediated dasatinib efflux: no significant effect
[3]
  inhibition of OATP1A2: can inhibit
[4]
  inhibition of OATP2B1: can inhibit
[2]
  effect on P-gp-mediated dasatinib efflux: no significant effect
[5]
  inhibition of OATP1B1: can inhibit

## Oc1cc(O)c2c(c1)O[C@H](c1cc(O)c(O)c(O)c1)[C@H](O)C2 [EGC, epigallocatechin]
[1]
  effect on BCRP-mediated dasatinib efflux: no significant effect
[2]
  effect on P-gp-mediated dasatinib efflux: no significant effect

## CC(C)c1nc(N(C)S(C)(=O)=O)nc(-c2ccc(F)cc2)c1/C=C/[C@@H](O)C[C@@H](O)CC(=O)O [Rosuvastatin, rosuvastatin]
[6]; po, 10 mg
  Clearance (oral clearance CL/F): 85.1 (28.4) L/h
[6]; male
  AUC0−24h GMR (90%CI): 0.78
  Cmax GMR (90%CI): 0.71
[6]; male, 10 mg
  AUC(0-inf): 118 ng·h/mL
  AUC(0-t): 109 ng·h/mL
  Cmax: 13.1 (32.2) μg/L
  half-life: 6.21 h
  tmax: 3.0 (1.5, 6.0) h
[7]; SLCO1B1*1b/*1b subjects
  change of systemic exposure of rosuvastatin after baicalin compared to placebo: −41.9%
[7]; SLCO1B1*1b/*15 subjects
  change of systemic exposure of rosuvastatin after baicalin compared to placebo: −23.9%
[8]; after giving EGCG daily for 10 days
  systemic exposure of rosuvastatin vs baseline before EGCG: not significantly different from the baseline value
[8]; [13]
  reduction of AUC up to 8 h: 19%
  reduction of Cmax: 15%

## CC(C)(C)NCC(O)COc1cccc2c1CC(O)C(O)C2 (centres unmarked) [nadolol]
[9]
  decrease of AUC of nadolol: 85.0%
  decrease of Cmax of nadolol: 85.3%
[10]; EGCG alone (150 mg/kg)
  reduction in AUC of nadolol: 73%
  reduction in Cmax of nadolol: 81%
[10]; [14]
  reduction in AUC of nadolol: 74%
  reduction in Cmax of nadolol: 85%

## CCN(CC)CCNC(=O)c1c(C)[nH]c(/C=C2\C(=O)Nc3ccc(F)cc32)c1C [sunitinib]
[11]; EGCG and sunitinib taken together
  effect of EGCG on bioavailability of sunitinib: reduced the bioavailability
[11]; EGCG taken 8 or 4 h before sunitinib administration
  effect of EGCG on the pharmacokinetics of sunitinib: no effect

## (–)-epigallocatechin-3-gallate [EGCG]
[1]
  effect on BCRP-mediated dasatinib efflux: no significant effect
[12]
  effect on OATP1B3: activate
[3]; concentration-dependent
  effect on OATP1A2-mediated uptake of estrone-3-sulfate: inhibited
[4]; concentration-dependent
  effect on OATP2B1-mediated uptake of estrone-3-sulfate: inhibited
[2]
  effect on P-gp-mediated dasatinib efflux: no significant effect
